Experimental data: US20260159519A1, “IMIDAZOPYRIDAZINE SUBSTITUTED BENZENE RING DERIVATIVE, PREPARATION METHOD, PHARMACEUTICAL COMPOSITION AND USE” (SHANGHAI SIMR BIOTECHNOLOGY CO., LTD., priority 2022, published 2026)

Experiments:
[1] = target: T1, human α2-GABAA receptor (BZD site, membrane protein of HEK293 cells) (Homo sapiens, UniProt P18507+P47869); assay: Radioligand competitive binding assay (3H-flunitrazepam) at the BZD site of the α2-GABAA receptor; conditions: competition with 1 nM 3H-flunitrazepam; Ki calculated from IC50; read-out: α2 Ki
T1 construct: expressed in transfected cells
Source text: (§1) α subunit, β subunit, and γ subunit are essential for the formation of a complete and functional GABAA receptor. In this example of the present disclosure, HEK293 cells stably expressing the human α1-GABAA receptor (α1-GABAAR) and α2-GABAA receptor (α2-GABAAR) were constructed and separately selected using the lipofection method (Felgner, P. L., et al. Proceedings of the National Academy of Sciences, 1987, 84: 7413-7417). The α1-GABAAR-HEK293 cell model simultaneously expressed the α1 subunit (for protein sequence, see GenBank accession No.: NM_000806.5), the […] (for protein sequence, see GenBank accession No.: NM_000814.5), and the […] (for protein sequence, see GenBank accession No.: NM_000816.3). The α2-GABAAR-HEK293 cell model simultaneously expressed the α2 subunit (for protein sequence, see GenBank accession No.: NM_000807.4), the β3 subunit (for protein sequence, see GenBank accession No.: NM_000814.5), and the γ2 subunit (for protein sequence, see GenBank accession No.: NM_000816.3).
(§2) The above cell lines were subcultured. The α2-GABAAR-HEK293 cells were expanded for testing the affinity of compounds to the benzodiazepine (BZD) site of the GABAA receptor. During the passage process, some of the α1-GABAAR-HEK293 cells and α2-GABAAR-HEK293 cells were suspended and plated on a slide pre-treated with Poly-D-Lysine for electrophysiological testing (method referenced from patent CN107344936A, paragraph 0586).
The affinity of the compounds for the α2-GABAA receptor was determined by competing for the binding of ^3H-flunitrazepam (isotope ^3H-labelled flunitrazepam) to the BZD site on the membrane protein of HEK293 cells stably expressing the human α2-GABAAR.
Membrane preparation: Cells were suspended in 50 mM Tris-HCl buffer (pH=7.4), homogenized 10 times for 20 seconds with a homogenizer on ice, and centrifuged at 1000 g for 10 minutes at 4° C. The supernatant was taken, and the above steps were repeated. The supernatant was centrifuged at 4° C. (33800 g; Thermo, rotor: A27-8×50) for 60 minutes. The precipitate was resuspended in Tris buffer (50 mM Tris-HCl, 10 mM MgCl2, 0.5 mM EDTA, and 10% glycerol). The protein content was determined (BCA (bicinchoninic acid) protein quantification assay based on copper ion reduction, with a BCA kit purchased from Pierce (Annoron (Beijing) Biotechnology Co., Ltd.)), and 1 mL aliquots were prepared and stored at −80° C.
Radioligand competitive binding assay: This assay was performed in a 200 μL system (96-well plate) containing 100 μL of cell membrane. The concentration of ^3H-flunitrazepam was 1 nM, and the concentrations of the test compounds were in the range of […]. Flumazenil was used as a control. 1 μL of 2 mM flumazenil (final […]) was added to each low signal control (low control, LC) well, and 1 μL of dimethyl sulfoxide was added to each high signal control (high control, HC) well. The final concentration of target membrane protein was […]. All sample stock solutions of test compounds were 10 mM dimethyl sulfoxide solutions. All the samples were diluted to a concentration of 0.2 mM with dimethyl sulfoxide, and then subjected to a 4-fold serial dilution for a total of 8 working concentration gradients. The 96-well plate was sealed with a sealing membrane and then incubated on a shaker at room temperature for 1 hour. Meanwhile, a GF/C filter plate was soaked in plate soaking buffer (0.3% PEI (polyethyleneimine, purchased from Sigma-Aldrich, model: P314), stored at 4° C.) for at least 0.5 hours. After the binding incubation was completed, the cells were harvested onto the GF/C filter plate using a cell harvester and washed four times with plate washing buffer (50 mM Tris-HCl, pH 7.4, stored at 4° C.). After drying in an oven at 50° C. for 1 hour, the dried GF/C filter plate was bottom-sealed. The residual radioactivity on the filter membrane was detected by liquid scintillation counting.

[2] = target: T2, human α1-GABAA receptor (α1-GABAAR-HEK293 cells) (Homo sapiens, UniProt P14867+P18507); assay: Whole-cell patch-clamp electrophysiology, positive allosteric modulatory activity on α1-GABAA receptor; assay type: cell-based; conditions: read-out: α1-GABAA positive allosteric modulatory activity
T2 construct: expressed in transfected cells
Source text: as §1, §2
(§3) The positive regulatory activity of the test drugs on the α1-GABAA receptor and the α2-GABAA receptor was detected by the electrophysiological method. The specific method was as follows:
(§4) Compound concentration setting: The final concentration of the compounds used for screening was 100 nM. For cell lines expressing the α1-GABAA receptor, the concentration of GABA was 0.05 to 0.07 μM (approximately EC2-4). For cell lines expressing the α2-GABAA receptor, the concentration of GABA was 0.10 to 0.11 μM (approximately EC7-8). Electrophysiological testing was performed using the whole-cell patch-clamp technique, which can refer to the method reported in the literature (Nickolls, S. A., et al. British Journal of Pharmacology, 2018, 175: 708-725). The composition of the extracellular solution (ECS) for electrophysiology was as follows: 150 mM NaCl, 5 mM KCl, 2.5 mM CaCl2, 1 mM MgCl2, 10 mM HEPES, and 10 mM glucose (pH 7.4). The formulation of the intracellular solution (ICS) for electrophysiology was as follows: 140 mM CsCl, 11 mM EGTA, 10 mM HEPES, 2 mM CaCl2, 1 mM MgCl2, 4 mM MgATP, and 2 mM TEA (pH 7.3). GABA (γ-aminobutyric acid) powder was prepared into a mother liquor with pure water, which was then diluted in ECS. The compound was first prepared into a 4 mM mother liquor with dimethyl sulfoxide, which was then gradually diluted in the corresponding concentration of GABA-ECS. The solutions were freshly prepared prior to electrophysiological testing.
(§5) Electrophysiological signal acquisition was performed using an EPC 10 amplifier and PatchMaster software (HEKA) or an Axon 700B amplifier and Clampex software (AXON). The recording electrode was made through a drawing process using borosilicate glass, with an electrode resistance of 4 to 6 MΩ. Extracellular administration was performed using the ALA-VC-8PG™ system. A single, independently growing cell was selected. After the glass electrode formed a good seal with the cell, the membrane was ruptured to form the whole-cell configuration. The cell membrane potential was clamped at −60 mV and recorded in Gap-free mode. During the test, the extracellular solution was first applied extracellularly for approximately 20 seconds. After the baseline (Iprebaseline) stabilized, the extracellular solution was switched to GABA-ECS. At this point, the current induced by GABA (Igaba) could be detected. After approximately 10 to 20 seconds, when the current stabilized, the extracellular solution was switched to a mixture of the compound and GABA-ECS. […]

[3] = target: T3, human α2-GABAA receptor (α2-GABAAR-HEK293 cells) (Homo sapiens, UniProt P18507+P47869); assay: Whole-cell patch-clamp electrophysiology, positive allosteric modulatory activity on α2-GABAA receptor; assay type: cell-based; conditions: read-out: α2-GABAA positive allosteric modulatory activity
T3 construct: expressed in transfected cells
Source text: as §1, §2, §3, §4, §5

| SMILES | Ki [1] [nM] | activation at 0.1 µM [2] [%] | activation at 0.1 µM [3] [%] |
| --- | --- | --- | --- |
| CCn1cnc2c(-c3ccc(F)c(-c4cc5cn(C6CN(C)C6)nc5cc4OC)c3)cnnc21 [Example 117] | 15.2 | 37 | 86 |
| CCn1cnc2c(-c3ccc(F)c(-c4cc5ccn(C)c(=O)c5cc4OC)c3)cnnc21 [Example 121, 6-(5-(7-Ethyl-7H-imidazo[4,5-c]pyridazin-4-yl)-2-fluorophenyl)-7-methoxy-2-methylisoquinolin-1(2H)-one] | 3.02 | -6 | 90 |
| CCn1cnc2c(-c3ccc(F)c(-c4cc5ccncc5cc4OC)c3)cnnc21 [Example 123, 6-(5-(7-Ethyl-7H-imidazo[4,5-c]pyridazin-4-yl)-2-fluorophenyl)-7-methoxyisoquinoline] | 7.7 | 33 | 95 |
| CCn1cnc2c(-c3ccc(F)c(-c4cc5cn(C6COC6)nc5cc4OC)c3)cnnc21 [Example 129, 7-Ethyl-4-(4-fluoro-3-(6-methoxy-2-(oxetan-3-yl)-2H-indazol-5-yl)phenyl)-7H-imidazo[4,5-c]pyridazine] | 3.23 | 56 | 128 |
| CCn1cnc2c(-c3ccc(F)c(-c4cc5oc(C)nc5cc4OC)c3)cnnc21 [Example 133, 6-(5-(7-Ethyl-7H-imidazo[4,5-c]pyridazin-4-yl)-2-fluorophenyl)-5-methoxy-2-methylbenzo[d]oxazole] | 12.7 | 16 | 130 |
| CCn1cnc2c(-c3ccc(F)c(-c4cc5cn(C)nc5cc4OC)c3)cnnc21 [Example 141, 7-Ethyl-4-(4-fluoro-3-(6-methoxy-2-methyl-2H-indazol-5-yl)phenyl)-7H-imidazo[4,5-c]pyridazine] | 9.15 | 37 | 105 |
| CCn1cnc2c(-c3ccc(F)c(-c4cc5cnn(C)c5cc4OC)c3)cnnc21 [Example 142, 7-Ethyl-4-(4-fluoro-3-(6-methoxy-1-methyl-1H-indazol-5-yl)phenyl)-7H-imidazo[4,5-c]pyridazine] | 4.54 | 36 | 99 |
| CCn1cnc2c(-c3ccc(F)c(-c4ccc5c(nnn5C5CCOC5)c4COC)c3)cnnc21 (stereo not drawn) [Example 157, 7-Ethyl-4-(4-fluoro-3-(4-(methoxymethyl)-1-(tetrahydrofuran-3-yl)-1H-benzo[d][1,2,3]triazol-5-yl)phenyl)-7H-imidazo[4,5-c]pyridazine] | 23.3 | 50 | 99 |

Now from value to compound:

| Ki [1] [nM] | activation at 0.1 µM [2] [%] | activation at 0.1 µM [3] [%] | SMILES |
| --- | --- | --- | --- |
| 7.62 | 64 | 171 | CCn1cnc2c(-c3ccc(F)c(-c4cc5ccnnc5cc4OC)c3)cnnc21 [Example 112, 6-(5-(7-Ethyl-7H-imidazo[4,5-c]pyridazin-4-yl)-2-fluorophenyl)-7-methoxycinnoline] |
| 9.97 | 68 | 107 | CCn1cnc2c(-c3ccc(F)c(-c4cc5cn(C6CC6)nc5cc4OC)c3)cnnc21 [Example 114, 4-(3-(2-Cyclopropyl-6-methoxy-2H-indazol-5-yl)-4-fluorophenyl)-7-ethyl-7H-imidazo[4,5-c]pyridazine] |
| 16.4 | -25 | 85 | CCn1cnc2c(-c3ccc(F)c(-c4ccc5c(ncn5C5COC5)c4OC)c3)cnnc21 [Example 115, 7-Ethyl-4-(4-fluoro-3-(4-methoxy-1-(oxetan-3-yl)-1H-benzo[d]imidazol-5-yl)phenyl)-7H-imidazo[4,5-c]pyridazine] |
| 15.4 | -10 | 86 | CCn1cnc2c(OC)c(-c3cc(-c4cnnc5c4ncn5CC)ccc3F)ccc21 [Example 119, 7-Ethyl-4-(3-(1-ethyl-4-methoxy-1H-benzo[d]imidazol-5-yl)-4-fluorophenyl)-7H-imidazo[4,5-c]pyridazine] |
| 4.76 | 39 | 125 | CCn1cnc2c(-c3ccc(F)c(-c4cc5cn(C6CCOC6)nc5cc4OC)c3)cnnc21 (stereo not drawn) [Example 122, 7-Ethyl-4-(4-fluoro-3-(6-methoxy-2-(tetrahydrofuran-3-yl)-2H-indazol-5-yl)phenyl)-7H-imidazo[4,5-c]pyridazine] |
| 5.22 | -35 | 90 | CCn1cnc2c(-c3ccc(F)c(-c4ccc5c(ncn5C)c4OC)c3)cnnc21 [Example 126, 7-Ethyl-4-(4-fluoro-3-(4-methoxy-1-methyl-1H-benzo[d]imidazol-5-yl)phenyl)-7H-imidazo[4,5-c]pyridazine] |
| 4.8 | 36 | 139 | CCn1cc2cc(-c3cc(-c4cnnc5c4ncn5CC)ccc3F)c(OC)cc2n1 [Example 130, 7-Ethyl-4-(3-(2-ethyl-6-methoxy-2H-indazol-5-yl)-4-fluorophenyl)-7H-imidazo[4,5-c]pyridazine] |
| 13.2 | 35 | 122 | CCn1cnc2c(-c3ccc(F)c(-c4cc5cccnc5cc4OC)c3)cnnc21 [Example 139, 6-(5-(7-Ethyl-7H-imidazo[4,5-c]pyridazin-4-yl)-2-fluorophenyl)-7-methoxyquinoline] |
